From patent US20220213060A1, “Crystal Form of Quinazolinone Compound and Preparation Method Therefor” (Luoxin Healthcare Science and Technology Development …, priority 2019, published 2022) come the findings set out here.

Series [1] can be described thus: Hygroscopicity by dynamic vapor sorption (DVS). Format: physicochemical. As to conditions: 25° C. and 80% RH; listed as crystal form A of the compound represented by formula (I). As for the experimental part: 1.4 Dynamic Vapor Sorption (DVS) Method of the Present Disclosure
Instrument model: SMS DVS Advantage dynamic vapor sorption instrument
Detection conditions: 10-20 mg of sample was placed in a DVS sample tray for testing.
Detailed DVS parameters were as follows:
Equilibrium: dm/dt=0.01%/min: (shortest: 10 min, longest: 180 min)
Drying: drying at 0% RH for 120 min
RH (%) test gradient: 10%
RH (%) test gradient range: 0%-90%-0%
Hygroscopicity evaluation is classified as follows:
20 mg of the crystal form A of the compound represented by formula (I) was placed in the DVS sample tray for testing.

A further series has as its target T1, PI3Kα (Homo sapiens, UniProt P42336).
T1 construct: purchased Millipore 14-602-K
The series can be described thus: In vitro enzymatic activity test (ADP-Glo lipid kinase), PI3Kα wild type. It counts as biochemical. As to conditions: wild-type PI3Kα kinase; read-out: Wild type PI3Kα IC50. As for the experimental part: (§1) The lipid kinase reaction was carried out in a suitable substrate and under ATP conditions, then the activity of the kinase was detected by ADP-Glo™ kit in two steps. Step 1: the kinase reaction was terminated, in which the residual ATP was completely removed and only ADP was retained; step 2: kinase detection reagent was added to convert ADP to ATP, accompanied by fluorescein/luciferase reaction. Finally, the fluorescence value output was converted into kinase activity.
(§2) Experimental Materials and Equipment:
(§3) 2) Kit: ADP-Glo™ lipid kinase and PIP2:3PS kit (Promega #V1792)
The reagent kit contains: 1 mM PIP2:3PS, 10× lipid dilution buffer, 1 M magnesium chloride, 10 mM ATP, 10 mM ADP, ADP-Glo reagent, detection buffer and detection substrate.
3) Reaction plate: OptiPlate-384, white and transparent (PerkinElmer #6007299)
1) 10× reaction buffer: 500 mM HEPES, pH 7.5, 500 mM NaCl, […]; BSA: 10% stock solution, self-made
2) Final test system conditions: 1× reaction system: 50 mM of HEPES, 50 mM of NaCl, 3 mM of MgCl2, 0.01% BSA (freshly prepared on the day of experiment), 1% DMSO (v/v)+/−compound
3) Reaction system: 3 μL of mixture of enzyme and substrate (1:1)+2 μL of ATP/MgCl2 mixture+5 μL of ADP-Glo reagent+10 μL of detection reagent.
The specific experimental operations were as follows: […]
(§4) (16) Fluorescence values were measured on the Envision instrument.

In another series the target is Mutant PI3Kα (E545K) (Homo sapiens, UniProt P42336, E545K). The series can be described thus: In vitro enzymatic activity test, mutant PI3Kα (E545K). It counts as biochemical.
Text: The crystal form A of the compound represented by formula (I) has a strong inhibitory effect on both wild-type and mutant PI3Kα kinases. […] The crystal form A of the compound represented by formula (I) has excellent selectivity to the other three subtypes of PI3K, and its inhibitory activity against PI3Kα is 149/7.44/6.61 times higher than that of PI3Kβ/δ/γ, respectively. The specific experimental method was the same as experimental embodiment 8. […] The specific experimental method was the same as experimental embodiment 9.
as §1, §2, §3
The reagent kit contains: 1 mM PIP2:3PS, 10× lipid dilution buffer, 1 M magnesium chloride, 10 mM ATP, 10 mM ADP, ADP-Glo reagent, detection buffer and detection substrate. […]
as §4

The test system of another series is RAW264.7. The series can be described thus: Akt phosphorylation inhibition in RAW264.7 cells (high expression of PI3Kγ). Format: cell-based. The note with it: RAW264.7 cell line with high expression of PI3Kγ.

Bounds are passed on as bounds.

Chain of Mutant PI3Kα (E545K) (P42336 whole entry E545K): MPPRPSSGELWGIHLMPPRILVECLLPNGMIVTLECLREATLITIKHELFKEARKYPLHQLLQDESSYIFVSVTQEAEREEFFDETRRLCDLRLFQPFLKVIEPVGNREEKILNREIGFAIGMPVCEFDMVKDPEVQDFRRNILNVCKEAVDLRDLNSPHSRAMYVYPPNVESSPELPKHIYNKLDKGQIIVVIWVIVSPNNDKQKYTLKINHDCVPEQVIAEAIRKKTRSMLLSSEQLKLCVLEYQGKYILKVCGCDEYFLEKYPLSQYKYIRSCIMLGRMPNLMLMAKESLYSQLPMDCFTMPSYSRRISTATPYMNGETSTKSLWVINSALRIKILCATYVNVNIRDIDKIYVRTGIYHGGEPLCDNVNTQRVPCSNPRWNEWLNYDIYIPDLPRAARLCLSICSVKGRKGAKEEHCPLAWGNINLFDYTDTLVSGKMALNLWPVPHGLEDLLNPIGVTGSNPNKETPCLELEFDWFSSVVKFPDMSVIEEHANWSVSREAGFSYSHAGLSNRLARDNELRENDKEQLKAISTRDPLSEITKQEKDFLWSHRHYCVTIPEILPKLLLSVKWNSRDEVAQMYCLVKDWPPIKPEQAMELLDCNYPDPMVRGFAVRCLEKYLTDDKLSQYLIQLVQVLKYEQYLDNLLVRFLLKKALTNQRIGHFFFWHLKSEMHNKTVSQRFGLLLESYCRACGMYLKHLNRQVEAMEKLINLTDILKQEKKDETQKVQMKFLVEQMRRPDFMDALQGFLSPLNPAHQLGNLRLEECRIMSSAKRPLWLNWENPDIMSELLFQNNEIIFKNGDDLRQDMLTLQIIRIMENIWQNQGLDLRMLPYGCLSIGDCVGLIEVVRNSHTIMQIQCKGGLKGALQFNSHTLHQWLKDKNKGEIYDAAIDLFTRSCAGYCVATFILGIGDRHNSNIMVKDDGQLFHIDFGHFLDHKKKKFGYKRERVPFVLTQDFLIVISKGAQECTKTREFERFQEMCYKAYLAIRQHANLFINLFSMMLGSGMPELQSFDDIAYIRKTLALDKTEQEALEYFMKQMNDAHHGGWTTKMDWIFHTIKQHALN
Chain of Mutant PI3Kα (E545K) (P27986 whole entry partner): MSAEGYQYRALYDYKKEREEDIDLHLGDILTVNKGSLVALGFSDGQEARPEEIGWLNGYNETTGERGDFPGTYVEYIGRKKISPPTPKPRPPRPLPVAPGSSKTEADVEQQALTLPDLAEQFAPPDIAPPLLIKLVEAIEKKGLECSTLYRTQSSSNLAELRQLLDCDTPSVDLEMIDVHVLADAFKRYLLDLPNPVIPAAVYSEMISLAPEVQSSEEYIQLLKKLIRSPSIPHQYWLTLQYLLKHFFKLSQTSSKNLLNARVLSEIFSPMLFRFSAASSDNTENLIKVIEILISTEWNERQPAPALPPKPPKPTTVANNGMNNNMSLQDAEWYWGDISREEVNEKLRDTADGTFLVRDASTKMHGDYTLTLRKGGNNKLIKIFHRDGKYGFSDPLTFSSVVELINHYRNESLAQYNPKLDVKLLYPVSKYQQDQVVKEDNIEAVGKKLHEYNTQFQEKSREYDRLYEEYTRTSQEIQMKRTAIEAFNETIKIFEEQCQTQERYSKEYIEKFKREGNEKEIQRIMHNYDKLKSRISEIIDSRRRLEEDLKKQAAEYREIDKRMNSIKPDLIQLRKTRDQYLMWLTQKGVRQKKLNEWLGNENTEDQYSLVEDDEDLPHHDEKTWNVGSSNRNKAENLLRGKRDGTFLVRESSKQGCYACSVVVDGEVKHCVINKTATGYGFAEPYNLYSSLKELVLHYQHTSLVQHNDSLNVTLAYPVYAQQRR
T1 sequence (P42336 whole entry): as the sequence (P42336 whole entry E545K) above, with K545E counted along it
T1 sequence (P27986 whole entry partner): as the sequence (P27986 whole entry partner) above

Consider `CNC(=O)[C@H](C)Cn1cnc2ccc(-c3cnc(OC)c(NS(=O)(=O)c4ccc(F)cc4F)c3)cc2c1=O`, for which, in series [1], the Classification for hygroscopicity entry is reported as “slightly hygroscopic (2% > ΔW% ≥ 0.2%)”. In addition, the “ΔW, hygroscopical weight gain” value in series [1] is reported as 0.885%. The IC50 at PI3Kα was 1.8 nM; at Mutant PI3Kα (E545K), 1.13 nM. The “Selectivity PI3Kα over PI3Kγ, Akt phosphorylation inhibitory activity in cells” value in the series with RAW264.7 is given as greater than 694 times.
